# From patent US7485641B2, “Substituted 3-amino-pyrrolidino-4-lactams” (Pfizer, Inc., priority 2006, dated 2009)
# Where a name gives a salt, the structure may show the parent alone.
# Target: T1, DPP-IV (Homo sapiens, UniProt P27487)
# T1 construct: purchased Enzyme Systems Products SPE-01
# Assay: In vitro assay for dipeptidyl peptidase inhibition
# Format: biochemical
# Conditions: Examples 156-162; n-value in brackets; IC50's or percent inhibition at 300 nM; read-out: DPP-IV inhibition
# T1 sequence (P27487 whole entry, species assumed): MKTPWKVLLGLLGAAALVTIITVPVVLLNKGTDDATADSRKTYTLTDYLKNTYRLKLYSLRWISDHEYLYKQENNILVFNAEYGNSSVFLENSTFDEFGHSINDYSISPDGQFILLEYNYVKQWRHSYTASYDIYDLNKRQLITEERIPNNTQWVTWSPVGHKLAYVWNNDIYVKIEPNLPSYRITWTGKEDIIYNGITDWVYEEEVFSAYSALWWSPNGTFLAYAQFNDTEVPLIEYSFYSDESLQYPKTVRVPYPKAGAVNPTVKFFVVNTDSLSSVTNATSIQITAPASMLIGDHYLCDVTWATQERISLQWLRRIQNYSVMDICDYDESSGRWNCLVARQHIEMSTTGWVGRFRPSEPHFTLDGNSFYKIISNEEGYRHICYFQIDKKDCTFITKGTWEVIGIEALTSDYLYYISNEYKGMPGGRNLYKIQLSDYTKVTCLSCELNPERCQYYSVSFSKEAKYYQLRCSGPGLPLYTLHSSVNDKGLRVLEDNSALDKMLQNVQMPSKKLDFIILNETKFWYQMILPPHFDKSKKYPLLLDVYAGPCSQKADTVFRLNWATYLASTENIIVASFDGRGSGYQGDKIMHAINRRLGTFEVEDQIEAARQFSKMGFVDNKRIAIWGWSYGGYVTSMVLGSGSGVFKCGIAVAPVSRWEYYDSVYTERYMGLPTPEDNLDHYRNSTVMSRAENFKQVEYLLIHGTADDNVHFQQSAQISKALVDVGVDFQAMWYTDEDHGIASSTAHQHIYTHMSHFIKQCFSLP
row,Compound,IC50 [nM]
1,"N[C@H]1CN(C(=O)c2cc3cc(Cl)ccc3[nH]2)C[C@@H]1N1CCCCC1=O [Example 161, 1-[(3S,4S)-4-Amino-1-(5-chloro-1H-indole-2-carbonyl)-pyrrolidin-3-yl]-piperidin-2-onehydrochloride]",1160
2,"N[C@H]1CN(C(=O)c2cc3cc(Cl)ccc3o2)C[C@@H]1N1CCCCC1=O [Example 157, 1-((3S,4S)-4-amino-1-(5-chlorobenzofuran-2-carbonyl)pyrrolidin-3-yl)piperidin-2-onetrifluoroacetate]",212

# Same assay, conditions: at 300 nM; n-value given in brackets
row,Compound,DPP-IV Percent Inhibition at 300 nM
1,"COc1cc2c(cc1OC)CN(c1ncnc(N3C[C@H](N)[C@@H](N4CCCCC4=O)C3)n1)CC2.O=C(O)C(F)(F)F [Example 59, 1-((3S,4S)-4-Amino-1-(4-(6,7-dimethoxy-3,4-dihydroisoquinolin-2(1H)-yl)-1,3,5-triazin-2-yl)pyrrolidin-3-yl)piperidin-2-onetrifluoroacetate]",44.3%(4)
2,"N[C@H]1CN(c2ncnc(N3CC(Oc4ccc(F)c(F)c4)C3)n2)C[C@@H]1N1CCCCC1=O.O=C(O)C(F)(F)F [Example 49, 1-((3S,4S)-4-Amino-1-(4-(3-(3,4-difluorophenoxy)azetidin-1-yl)-1,3,5-triazin-2-yl)pyrrolidin-3-yl)piperidin-2-onetrifluoroacetate]",19.6%(4)

# Same assay, conditions: at 300 nM; n-value given in brackets; read-out: DPP-IV Percent Inhibition at 300 nM
row,Compound,inhibition at 0.3 µM [%]
1,"Cn1nc(C(F)(F)F)c2c1CCN(c1ncnc(N3C[C@H](N)[C@@H](N4CCCCC4=O)C3)n1)C2 [Example 67, 1-((3S,4S)-4-amino-1-(4-(1-methyl-3-(trifluoromethyl)-6,7-dihydro-1H-pyrazolo[4,3-c]pyridin-5(4H)-yl)-1,3,5-triazin-2-yl)pyrrolidin-3-yl)piperidin-2-one]",17.9
2,"N[C@H]1CN(c2cc(N3Cc4cc(Cl)c(Cl)cc4C3)ncn2)C[C@@H]1N1CCCCC1=O [Example 54, 1-((3S,4S)-4-amino-1-(6-(5,6-dichloroisoindolin-2-yl)pyrimidin-4-yl)pyrrolidin-3-yl)piperidin-2-one]",32.6
3,"CC1(C)CN(c2ncnc(N3C[C@H](N)[C@@H](N4CCCCC4=O)C3)n2)CC1(C)C [Example 46, 1-((3S,4S)-4-amino-1-(4-(3,3,4,4-tetramethylpyrrolidin-1-yl)-1,3,5-triazin-2-yl)pyrrolidin-3-yl)piperidin-2-one]",6.8
4,"CCS(=O)(=O)c1ccc2c(N3C[C@H](N)[C@@H](N4CCCCC4=O)C3)ncnc2c1 [Example 139, 1-((3S,4S)-4-amino-1-(7-(ethylsulfonyl)quinazolin-4-yl)pyrrolidin-3-yl)piperidin-2-one]",33.5

# Same assay, conditions: n-value given in brackets; read-out: DPP-IV IC50
row,Compound,IC50 [nM]
1,"N[C@H]1CN(c2ncnc(N3CCc4sccc4C3)n2)C[C@@H]1N1CCCCC1=O [Example 71, 1-{(3S,4S)-4-Amino-1-[4-(6,7-dihydro-4H-thieno[3,2-c]pyridine-5-yl)-[1,3,5]triazin-2-yl]-pyrrolidin-3-yl}-piperidin-2-onetrifluoroacetate]",139
2,"N[C@H]1CN(c2ncnc(N3CCS(=O)(=O)CC3)n2)C[C@@H]1N1CCCCC1=O [Example 68, 1-{(3S,4S)-4-Amino-1-[4-(1,1-dioxo-6-thiomorpholin-4-yl)-[1,3,5]triazin-2-yl]-pyrrolidin-3-yl}-piperidin-2-onetrifluoroacetate]",141
3,"N[C@H]1CN(c2cc(N3CCc4ccccc4CC3)ncn2)C[C@@H]1N1CCCC1=O [Example 61, 1-((3S,4S)-4-Amino-1-(6-(1,2,4,5-tetrahydrobenzo[d]azepin-3-yl)pyrimidin-4-yl)pyrrolidin-3-yl)pyrrolidin-2-onehydrochloride]",787
4,"N[C@H]1CN(c2ncnc(N3CCc4nocc4C3)c2F)C[C@@H]1N1CCCCC1=O [Example 79, 1-((3S,4S)-4-amino-1-(6-(6,7-dihydroisoxazolo[4,3-c]pyridin-5(4H)-yl)-5-fluoropyrimidin-4-yl)pyrrolidin-3-yl)piperidin-2-one]",61.7
5,"N-((R)-1-{4-[(3S,4S)-3-Amino-4-(2-oxo-piperidin-1-yl)-pyrrolidin-1-yl]-[1,3,5]triazin-2-yl}-pyrrolidin-3-yl)-acetamidetrifluoracetate [Example 43]",227
6,"1-((3S,4S)-4-Amino-1-(4-((R)-3-fluoropyrrolidin-1-yl)-1,3,5-triazin-2-yl)pyrrolidin-3-yl)piperidin-2-onetrifluoroacetate [Example 27]",92.2
7,"COc1ccc(-c2cc(N3C[C@H](N)[C@@H](N4CCCCC4=O)C3)ncn2)cc1 [Example 86, 1-{(3S,4S)-4-Amino-1-[6-(4-methoxy-phenyl)-pyrimidin-4-yl]-pyrrolidin-3-yl}-piperidin-2-one hydrochloride]",55.3
8,"CC1(O)CCN(c2ncnc(N3C[C@H](N)[C@@H](N4CCCCC4=O)C3)n2)C1 (stereo partly drawn) [Example 44, 1-((3S,4S)-4-amino-1-(4-(3-hydroxy-3-methylpyrrolidin-1-yl)-1,3,5-triazin-2-yl)pyrrolidin-3-yl)piperidin-2-onetrifluoroacetate]",316
9,"N[C@H]1CN(c2ncnc(-c3ccccc3)n2)C[C@@H]1N1CCCCC1=O [Example 85, 1-[(3S,4S)-4-Amino-1-(4-phenyl-[1,3,5]triazin-2-yl)-pyrrolidin-3-yl]-piperidin-2-one hydrochloride]",59.1
10,"N[C@H]1CN(c2cc(N3CCc4[nH]ncc4C3)ncn2)C[C@@H]1N1CCCC1=O [Example 66, 1-((3S,4S)-4-Amino-1-(6-(6,7-dihydro-1H-pyrazolo[4,3-c]pyridin-5(4H)-yl)pyrimidin-4-yl)pyrrolidin-3-yl)pyrrolidin-2-onedihydrochloride]",395
11,"CCC(CC)c1ccc2c(N3C[C@H](N)[C@@H](N4CCCCC4=O)C3)ncnc2c1 [Example 117, 1-((3S,4S)-4-amino-1-(7-(pentan-3-yl)quinazolin-4-yl)pyrrolidin-3-yl)piperidin-2-one]",206
12,"N[C@H]1CN(c2ncnc3cc(Cl)ccc23)C[C@@H]1N1CCCCC1=O [Example 102, 1-[(3S,4S)-4-Amino-1-(7-chloro-quinazolin-4-yl)-pyrrolidin-3-yl]-piperidin-2-one hydrochloride]",61.4
13,"N[C@H]1CN(c2cc(N3Cc4ccccc4C3)ncn2)C[C@@H]1N1CCCC1=O [Example 52, 1-((3S,4S)-4-Amino-1-(6-(isoindolin-2-yl)pyrimidin-4-yl)pyrrolidin-3-yl)pyrrolidin-2-onehydrochloride]",176
14,"COc1cc2c(cc1OC)CN(c1cc(N3C[C@H](N)[C@@H](N4CCCC4=O)C3)ncn1)CC2 [Example 60, 1-((3S,4S)-4-Amino-1-(6-(3,4-dihydro-6,7-dimethoxyisoquinolin-2(1H)-yl)pyrimidin-4-yl)pyrrolidin-3-yl)pyrrolidin-2-onehydrochloride]",1260
15,"Cc1nc(N2C[C@H](N)[C@@H](N3CC(F)(F)CCC3=O)C2)cc(N2CCC(F)(F)C2)n1 [Example 3, 1-((3S,4S)-4-amino-1-(6-(3,3-difluoropyrrolidin-1-yl)-2-methylpyrimidin-4-yl)pyrrolidin-3-yl)-5,5-difluoropiperidin-2-one]",12.6
16,"N[C@H]1CN(c2ncnc(N3CC[C@@H](O)C3)n2)C[C@@H]1N1CCCCC1=O [Example 38, 1-((3S,4S)-4-Amino-1-(4-((R)-3-hydroxypyrrolidin-1-yl)-1,3,5-triazin-2-yl)pyrrolidin-3-yl)piperidin-2-onetrifluoroacetate]",205
17,"N[C@H]1CN(c2ncnc(N3CCc4nocc4C3)n2)C[C@@H]1N1CCCCC1=O [Example 76, 1-{(3S,4S)-4-Amino-1-[4-(6,7-dihydro-4H-isoxazolo[4,3-c]pyridine-5-yl)-[1,3,5]triazin-2-yl]-pyrrolidin-3-yl}-piperidin-2-one trifluoroacetate]",23.7
18,"N[C@H]1CN(c2ncnc3cc(Oc4ccccc4)ccc23)C[C@@H]1N1CC(F)(F)CCC1=O [Example 101, 1-((3S,4S)-4-amino-1-(7-phenoxyquinazolin-4-yl)pyrrolidin-3-yl)-5,5-difluoropiperidin-2-one]",122
19,"N[C@H]1CN(c2ncnc3cc(O)ccc23)C[C@@H]1N1CCCCC1=O [Example 123, 1-((3S,4S)-4-amino-1-(7-hydroxyquinazolin-4-yl)pyrrolidin-3-yl)piperidin-2-one trifluoroacetate]",113
20,"N[C@H]1CN(c2ncnc3cc(OS(=O)(=O)c4ccc(F)cc4F)ccc23)C[C@@H]1N1CCCCC1=O [Example 143, 4-((3S,4S)-3-amino-4-(2-oxopiperidin-1-yl)pyrrolidin-1-yl)quinazolin-7-yl 2,4-difluorobenzenesulfonate]",280
21,"CCSc1ccc2c(N3C[C@H](N)[C@@H](N4CCCCC4=O)C3)ncnc2c1 [Example 140, 1-((3S,4S)-4-amino-1-(7-(ethylthio)quinazolin-4-yl)pyrrolidin-3-yl)piperidin-2-one]",55
22,"N[C@H]1CN(c2cc(N3CCS(=O)(=O)CC3)ncn2)C[C@@H]1N1CCCC1=O [Example 69, 1-((3S,4S)-4-Amino-1-[6-(1,1-dioxo-6-thiomorpholin-4-yl)-pyrimidin-4-yl]-pyrrolidin-3-yl)pyrrolidin-2-onedihydrochloride]",1060
23,"N[C@H]1CN(c2ncnc3cc(OC(F)F)ccc23)C[C@@H]1N1CCCCC1=O [Example 124, 1-((3S,4S)-4-amino-1-(7-(difluoromethoxy)quinazolin-4-yl)pyrrolidin-3-yl)piperidin-2-one]",33.2
24,"N[C@H]1CN(c2cc(Oc3cccc(F)c3)ncn2)C[C@@H]1N1CCCCC1=O [Example 88, 1-((3S,4S)-4-amino-1-(6-(3-fluorophenoxy)pyrimidin-4-yl)pyrrolidin-3-yl)piperidin-2-one]",314
25,"CC1(O)CCN(c2ncnc(N3C[C@H](N)[C@@H](N4CCCCC4=O)C3)n2)CC1 [Example 35, 1-{(3S,4S)-4-Amino-1-[4-(4-hydroxy-4-methyl-piperidin-1-yl)-[1,3,5]triazin-2-yl]-pyrrolidin-3-yl}-piperidin-2-onetrifluoroacetate]",558
